Experimental data published in patent publication US12605424B2 (priority 2019, dated 2026).
Like-named read-outs stand apart in the source and are kept apart here.

Key:
[1] = tested on: Br2 (600/30) exposed neonatal mice; settings: mouse, in vivo
[2] = tested on: human bronchial epithelial cells (HBECs); assay type: cell-based
[3] = tested on: C57BL/6 mice exposed to Br2 gas; settings: mouse, in vivo
[4] = mouse, in vivo
[5] = mouse, in vivo; remark: listed apart in the source
[6] = mouse, in vivo; cited from earlier work
[7] = tested on: C57BL/6 mice exposed to COCl2; settings: mouse, in vivo
[8] = tested on: Neonatal mice exposed to Cl2; settings: mouse, in vivo
[9] = tested on: Mice having sickle cell disease exposed to chlorine; settings: mouse, in vivo
[10] = tested on: C57bl/6 mice exposed to Br2; settings: mouse, in vivo
P aeruginosa = assay type: cell-based, mouse
[11] = tested on: P. aeruginosa (strain PAK); settings: mouse, in vivo
[12] = tested on: C57BL/6 mice exposed to Cl2, Br2 or COCl2; settings: mouse, in vivo
ENaC = ENaC (Homo sapiens, UniProt P37088+P51168+P51170); assay type: cell-based
Chain of ENaC (P51168 whole entry): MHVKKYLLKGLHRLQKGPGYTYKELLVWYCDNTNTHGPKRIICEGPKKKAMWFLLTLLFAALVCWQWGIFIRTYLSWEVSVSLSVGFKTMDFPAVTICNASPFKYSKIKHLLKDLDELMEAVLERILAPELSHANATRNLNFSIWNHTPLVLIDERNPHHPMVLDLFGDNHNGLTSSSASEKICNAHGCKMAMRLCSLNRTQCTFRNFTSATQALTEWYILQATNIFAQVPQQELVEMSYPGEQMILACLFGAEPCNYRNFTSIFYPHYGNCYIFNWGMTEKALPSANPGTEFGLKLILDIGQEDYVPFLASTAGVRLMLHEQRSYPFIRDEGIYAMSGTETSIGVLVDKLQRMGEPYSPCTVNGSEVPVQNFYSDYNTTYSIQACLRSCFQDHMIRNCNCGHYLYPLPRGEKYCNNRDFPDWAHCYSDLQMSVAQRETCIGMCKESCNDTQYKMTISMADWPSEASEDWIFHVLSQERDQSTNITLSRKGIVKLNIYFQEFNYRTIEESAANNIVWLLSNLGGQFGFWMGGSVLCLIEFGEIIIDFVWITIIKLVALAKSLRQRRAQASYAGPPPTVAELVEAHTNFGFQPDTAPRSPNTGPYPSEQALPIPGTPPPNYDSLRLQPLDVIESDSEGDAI
Chain of ENaC (P51170 whole entry): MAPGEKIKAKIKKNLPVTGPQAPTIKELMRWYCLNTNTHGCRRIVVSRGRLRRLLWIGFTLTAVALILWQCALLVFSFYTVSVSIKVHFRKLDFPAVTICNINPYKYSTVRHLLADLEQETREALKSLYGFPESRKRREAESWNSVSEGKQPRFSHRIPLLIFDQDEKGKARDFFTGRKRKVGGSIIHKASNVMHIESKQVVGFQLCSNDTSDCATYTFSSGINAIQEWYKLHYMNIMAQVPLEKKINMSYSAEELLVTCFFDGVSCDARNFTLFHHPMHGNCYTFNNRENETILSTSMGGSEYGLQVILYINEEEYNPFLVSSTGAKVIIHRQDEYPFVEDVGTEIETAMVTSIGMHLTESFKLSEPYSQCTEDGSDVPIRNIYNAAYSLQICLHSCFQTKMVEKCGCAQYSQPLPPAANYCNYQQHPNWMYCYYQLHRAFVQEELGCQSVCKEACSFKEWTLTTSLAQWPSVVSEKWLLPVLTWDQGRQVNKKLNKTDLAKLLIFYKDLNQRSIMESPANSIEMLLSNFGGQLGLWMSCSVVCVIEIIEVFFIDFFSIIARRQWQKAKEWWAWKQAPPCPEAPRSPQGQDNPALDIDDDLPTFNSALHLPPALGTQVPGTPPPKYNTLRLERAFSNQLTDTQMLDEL
Chain of ENaC (P37088 whole entry): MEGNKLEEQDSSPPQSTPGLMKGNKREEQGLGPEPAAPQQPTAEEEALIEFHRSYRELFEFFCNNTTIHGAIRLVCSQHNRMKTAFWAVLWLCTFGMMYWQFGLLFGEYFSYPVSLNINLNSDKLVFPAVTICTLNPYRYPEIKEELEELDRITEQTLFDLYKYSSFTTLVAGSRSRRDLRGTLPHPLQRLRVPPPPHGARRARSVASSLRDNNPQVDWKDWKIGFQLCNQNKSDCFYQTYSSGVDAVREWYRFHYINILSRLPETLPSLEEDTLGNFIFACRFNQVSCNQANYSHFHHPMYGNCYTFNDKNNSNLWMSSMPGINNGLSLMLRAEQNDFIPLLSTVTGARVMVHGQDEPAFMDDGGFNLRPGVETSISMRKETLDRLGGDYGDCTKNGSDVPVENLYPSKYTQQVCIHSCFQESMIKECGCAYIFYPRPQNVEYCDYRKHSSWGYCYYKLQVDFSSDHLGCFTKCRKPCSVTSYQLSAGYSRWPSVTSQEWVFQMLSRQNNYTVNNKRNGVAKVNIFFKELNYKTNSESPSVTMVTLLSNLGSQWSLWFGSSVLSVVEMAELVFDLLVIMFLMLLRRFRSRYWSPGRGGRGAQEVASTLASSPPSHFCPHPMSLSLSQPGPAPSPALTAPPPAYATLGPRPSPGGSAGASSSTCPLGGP

Na^+/K^+-ATPase = assay type: cell-based, human
α, β, γ-hENaC = α, β, γ-hENaC (Homo sapiens, UniProt P37088+P51168+P51170); assay type: cell-based
Chain of α, β, γ-hENaC (P51168 whole entry): as the sequence (P51168 whole entry) above
Chain of α, β, γ-hENaC (P51170 whole entry): as the sequence (P51170 whole entry) above
Chain of α, β, γ-hENaC (P37088 whole entry): as the sequence (P37088 whole entry) above

CFTR = CFTR (Homo sapiens, UniProt P13569); assay type: cell-based
[13] = tested on: 16 pS non-selective cation channel; assay type: cell-based, mouse; settings: read-out: IC50, decrease of open probability of 16 pS channel
[14] = molecular target: 4 pS amiloride-sensitive highly Na^+ selective channel (ENaC) (Mus musculus, UniProt Q61180+Q9WU38+Q9WU39); assay type: cell-based
Chain of 4 pS amiloride-sensitive highly Na^+ selective channel (ENaC) (Q9WU38 whole entry): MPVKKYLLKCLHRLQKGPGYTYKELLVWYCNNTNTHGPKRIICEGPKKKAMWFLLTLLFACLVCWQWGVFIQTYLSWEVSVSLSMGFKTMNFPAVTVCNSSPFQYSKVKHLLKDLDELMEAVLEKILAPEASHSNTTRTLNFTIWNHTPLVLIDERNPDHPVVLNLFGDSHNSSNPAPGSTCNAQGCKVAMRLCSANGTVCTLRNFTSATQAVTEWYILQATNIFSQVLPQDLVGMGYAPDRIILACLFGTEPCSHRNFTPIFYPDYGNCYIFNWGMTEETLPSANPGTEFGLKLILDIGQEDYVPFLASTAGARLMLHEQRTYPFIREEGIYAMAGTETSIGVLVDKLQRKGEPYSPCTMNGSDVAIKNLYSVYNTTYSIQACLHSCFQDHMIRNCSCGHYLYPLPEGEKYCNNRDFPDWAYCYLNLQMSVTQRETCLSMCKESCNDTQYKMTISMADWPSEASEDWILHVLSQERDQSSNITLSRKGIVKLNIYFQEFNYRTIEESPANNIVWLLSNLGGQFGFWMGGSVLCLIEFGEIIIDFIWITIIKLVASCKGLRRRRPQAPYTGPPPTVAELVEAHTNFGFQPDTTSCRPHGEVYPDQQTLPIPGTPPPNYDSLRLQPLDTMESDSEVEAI
Chain of 4 pS amiloride-sensitive highly Na^+ selective channel (ENaC) (Q9WU39 whole entry): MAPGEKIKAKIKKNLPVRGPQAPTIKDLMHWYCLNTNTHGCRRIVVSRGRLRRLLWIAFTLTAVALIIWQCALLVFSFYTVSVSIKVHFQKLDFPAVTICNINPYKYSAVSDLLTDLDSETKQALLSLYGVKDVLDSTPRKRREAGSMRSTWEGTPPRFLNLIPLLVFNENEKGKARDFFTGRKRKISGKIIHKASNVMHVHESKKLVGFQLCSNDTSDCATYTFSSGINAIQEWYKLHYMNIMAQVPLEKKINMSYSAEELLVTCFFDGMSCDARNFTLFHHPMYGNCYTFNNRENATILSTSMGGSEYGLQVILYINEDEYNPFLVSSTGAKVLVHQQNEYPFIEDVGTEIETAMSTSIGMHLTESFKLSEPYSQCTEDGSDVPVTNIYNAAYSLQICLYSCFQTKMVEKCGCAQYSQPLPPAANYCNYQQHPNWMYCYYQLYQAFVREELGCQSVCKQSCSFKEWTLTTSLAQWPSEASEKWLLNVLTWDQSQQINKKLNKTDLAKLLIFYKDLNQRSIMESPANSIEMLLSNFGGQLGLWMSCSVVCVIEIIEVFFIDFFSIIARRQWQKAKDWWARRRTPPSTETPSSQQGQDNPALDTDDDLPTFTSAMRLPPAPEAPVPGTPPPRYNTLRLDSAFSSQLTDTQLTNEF
Chain of 4 pS amiloride-sensitive highly Na^+ selective channel (ENaC) (Q61180 whole entry): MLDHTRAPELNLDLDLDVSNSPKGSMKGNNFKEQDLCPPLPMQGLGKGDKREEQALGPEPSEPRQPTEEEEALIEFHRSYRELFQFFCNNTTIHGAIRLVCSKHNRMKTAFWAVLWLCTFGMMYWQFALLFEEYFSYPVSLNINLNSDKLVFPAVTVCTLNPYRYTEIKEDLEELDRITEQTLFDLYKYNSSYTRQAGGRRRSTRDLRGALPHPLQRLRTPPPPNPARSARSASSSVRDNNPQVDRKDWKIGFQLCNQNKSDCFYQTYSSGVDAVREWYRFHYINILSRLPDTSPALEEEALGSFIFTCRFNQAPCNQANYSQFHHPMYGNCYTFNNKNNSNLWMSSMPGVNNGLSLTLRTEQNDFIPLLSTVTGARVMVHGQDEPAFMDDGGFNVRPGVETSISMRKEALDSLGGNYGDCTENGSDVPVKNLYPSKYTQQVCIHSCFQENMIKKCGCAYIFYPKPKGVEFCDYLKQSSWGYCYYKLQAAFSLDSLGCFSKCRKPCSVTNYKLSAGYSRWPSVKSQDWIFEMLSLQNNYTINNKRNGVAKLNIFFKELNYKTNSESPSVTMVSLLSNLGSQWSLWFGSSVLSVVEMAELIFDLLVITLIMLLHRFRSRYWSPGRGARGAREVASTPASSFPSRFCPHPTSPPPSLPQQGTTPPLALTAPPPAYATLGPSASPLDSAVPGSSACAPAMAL

With `OCC1OC([S][Au])C(O)C(O)C1O` [ATG, gold(1+);(3R,4S,5S,6R)-3,4,5-trihydroxy-6-(hydroxymethyl) oxane-2-thiolate, reference compound] as the compound, how does the mortality [1] read?
Its mortality is “not effective”.

What about the systemic hypoxia [1] of the same compound?
Its systemic hypoxia is “not effective”.

With `BrBr` [Br2, bromine] as the compound, how does the “ER stress marker ATF4” value [2] read?
Its value is “increased”.

And the “ER stress marker CHOP” value [2]?
Its value is “remained unaltered”.

With `O=C(/C=C/c1ccccc1)NC(NC(=S)Nc1cccc2cccnc12)C(Cl)(Cl)Cl` (stereo not drawn) [salubrinal, (2E)-3-Phenyl-N-[2,2,2-trichloro-1-[[(8-quinolinylamino)thioxomethyl]amino]ethyl]2-propenamide, reference compound] as the compound, how does the BALF elastase activity [3] read?
The BALF elastase activity was “attenuated”.

What about the BALF protein levels [3] of the same compound?
The BALF protein levels was “ameliorated”.

What about the “BALF total cell count” value [3] of the same compound?
Its value is “ameliorated”.

And the “Masson's trichrome staining of lungs (collagen, fibrotic changes)” value [3]?
Its value is “decreased collagen levels and lung fibrotic changes”.

What about the “alveolar mean linear intercept (Lm)” value [3] of the same compound?
The value was “attenuated”.

What about the “lung CHOP levels (immunoblot)” value [3] of the same compound?
The value was “decrease”.

What about the lung hydroxyproline levels [3] of the same compound?
Its lung hydroxyproline levels is “decreased collagen levels”.

And the “lung phosphorylated eIF2α (immunoblot)” value [3]?
Its value is “significant increase”.

What about the “lung volumes (PV curve), lung compliance and inspiratory capacity” value [3] of the same compound?
Its value is “prevented Br2-induced increase”.

What about the plasma elastase levels [3] of the same compound?
The plasma elastase levels was “attenuated”.

For Hemopexin [Hpx], which “time plasma level is maintained / remains stable” value [4] is on record?
The value was “at least 24 h”.

And the “plasma bioavailability (plasma concentration)” value ([4]; im)?
The value was “about 25 μg/ml”.

And the “plasma [IgM] relative to control” value [5]?
The value was ≤ 8%.

What about the serum half-life [6] of the same compound?
Its serum half-life is “approximately 7 days”.

And the BALF protein levels [7]?
The BALF protein levels was “reduced BALF protein levels”.

And the “apical cytoplasm of the bronchial epithelium (histology)” value [8]?
Its value is “exhibited some improvement”.

What about the “cellularity of alveolar septae (histology)” value [8] of the same compound?
The value was “exhibited some recovery”.

And the “mean linear intercept (MLI)” value [8]?
The value was “decreased MLI”.

What about the survival [8] of the same compound?
Its survival is “improved survival”.

What about the probability of survival [9] of the same compound?
The probability of survival was “higher probability of survival”.

And the “survival (Kaplan Meier)” value [10]?
Its value is “improved survival”.

And the mortality [1]?
The mortality was “not effective”.

And the systemic hypoxia [1]?
Its systemic hypoxia is “not effective”.

What about the “ATF4 and CHOP, immunohistochemical staining of lung sections” value ([3]; ip) of the same compound?
The value was “attenuated ATF4 and CHOP levels around airways and completely abrogated the ER stress markers in the lung parenchyma”.

And the BALF elastase activity ([3]; ip)?
Its BALF elastase activity is “lower”.

And the BALF protein levels ([3]; ip)?
The BALF protein levels was “significantly reduced”.

What about the “BALF total cell count” value ([3]; ip) of the same compound?
The value was “significantly reduced”.

And the “PV curve, lung compliance and inspiratory capacity” value ([3]; ip)?
Its value is “prevented the shifting of the PV curve”.

And the “alveolar Lm” value ([3]; ip)?
The value was “reduced”.

And the “lung ATF4 (immunoblot)” value ([3]; ip)?
The value was “low levels”.

What about the “lung CHOP (immunoblot)” value ([3]; ip) of the same compound?
The value was “low levels”.

And the “lung collagen levels on Masson's trichrome staining” value ([3]; ip)?
Its value is “significantly reduced”.

And the lung hydroxyproline levels ([3]; ip)?
Its lung hydroxyproline levels is “significantly reduced”.

And the “overall mortality (Kaplan-Meier)” value ([3]; ip)?
The value was “reduced overall mortality”.

What about the plasma elastase levels ([3]; ip) of the same compound?
The plasma elastase levels was “lower”.

What about the plasma heme ([3]; ip) of the same compound?
Its plasma heme is “reduced”.

What about the “bactericidal function of neutrophils (bacterial colonies on agar)” value (P aeruginosa) of the same compound?
Its value is “improved neutrophil function”.

What about the “bacterial colonies from lung homogenates on agar plates” value [11] of the same compound?
The value was “grew fewer bacterial colonies”.

And the survival [11]?
Its survival is “improved survival”.

What about the BALF heme [12] of the same compound?
Its BALF heme is “attenuated”.

And the “BALF inflammatory cell count” value [12]?
The value was “attenuated”.

What about the BALF protein levels [12] of the same compound?
The BALF protein levels was “reduced”.

And the BALF proteins [12]?
The BALF proteins was “attenuated”.

What about the “mortality (Kaplan-Meier)” value [12] of the same compound?
The value was “reduced mortality”.

For ferric chloride heme, which ENaC activity (ENaC) is on record?
The ENaC activity was “totally inhibited”.

What about the transepithelial resistance (ENaC) of the same compound?
The transepithelial resistance was “above 1500 Ohms*cm^2”.

And the EC50 (ENaC; read-out: EC50, inhibition of trans-epithelial Na^+ transport across human airway cells)?
Its EC50 is 500 nM.

What about the IC50 (ENaC; read-out: IC50, inhibition of amiloride-sensitive ENaC short circuit current) of the same compound?
Its IC50 is ~500 nM.

What about the “ER stress marker ATF4” value [2] of the same compound?
The value was “increased”.

What about the “ER stress marker CHOP” value [2] of the same compound?
Its value is “increased”.

What about the “Na^+/K^+-ATPase function (ouabain-sensitive current)” value (Na^+/K^+-ATPase) of the same compound?
The value was “did not impair”.

And the “Na^+ current (whole cell)” value (α, β, γ-hENaC)?
The value was “inhibited”.

What about the “inhibition of whole-cell Na^+ current” value (α, β, γ-hENaC; 1 µM) of the same compound?
Its value is 80%.

And the “forskolin-stimulated, GlyH-101-inhibited CFTR currents” value (CFTR)?
The value was “inhibited amiloride-sensitive, ENaC, but not forskolin-stimulated, GlyH-101-inhibited, CFTR, currents”.

And the IC50 [13]?
The IC50 was 125 nM.

What about the EC50 ([14]; read-out: EC50, inhibition of ENaC and cation Na^+ channels in mouse alveolar cells) of the same compound?
Its EC50 is 125 nM.

What about the IC50 ([14]; read-out: IC50, decrease of open probability of 4 pS channel) of the same compound?
The IC50 was 125 nM.

Which serum half-life [6] does the source give for “heme-Hpx complex: complex of heme with hemopexin” here?
Its serum half-life is “approximately 7 h”.

With nitrite [reference compound] as the compound, how does the “survival (Kaplan Meier)” value [10] read?
Its value is “improved survival early”.
